Patent EP0415126B1, “Anti-dental plaque agents” (MITSUI NORIN CO., LTD., priority 1989, dated 1991)

Tested on: glucosyltransferase
Assay: Inhibition of water-insoluble glucan formation by crude glucosyltransferase (14C-sucrose, scintillation counting)
Format: biochemical, Streptococcus mutans OMZ 176
Conditions: Water-insoluble glucan formation vs control, 60 minutes at 37°C, pH 6.8
Experimental: Crude glucosyltransferase was refined from Streptococcus mutans OMZ 176 according to the method described by Mukasa and Slads in Infect. Immun., 8, 555 (1973) and 9, 419 (1974).
The above GTF, labeled sucrose and the tea polyphenol compounds were mixed together to the following final concentrations, and was regulated with a 50 mM phosphate buffer (with pH 6.8). GTF: 0.34 mg protein/ml 0.1 mM (¹⁴C) sucrose: 0.1 »Ci/»l Present agent: 1 to 10 mg/ml or 1 to 10 mM.
Twenty (20) »l of the mixture solution were subjected to a reaction for 60 minutes at 37°C. After the completion of the reaction, 5 »l of the reaction mixture and 5 »l of supernatant obtained by centrifugation of the reaction mixture at 5,500 x g for 3 minutes were applied to a filter paper respectively, and then developed with a developing solution of butanol-pyridine-water (6:4:3), followed by counting with a scintillation counter. The amount of water-insoluble glucan was found by a difference between the measurements of the reaction mixture and the supernatant. The GTF inhibiting ability is expressed in terms of the rate of inhibiting the formation of water-insoluble glucan with respect to a control to which the tea polyphenol compounds were not added.

| Molecule | Inhibition (%) (sample concentration 1.0 mM) | Inhibition (%) (sample concentration 10.0 mM) |
| --- | --- | --- |
| O=C(O[C@@H]1Cc2c(O)cc(O)cc2O[C@@H]1c1cc(=O)c(O)c2c(O)c(O)cc([C@H]3Oc4cc(O)cc(O)c4C[C@H]3O)c2c1)c1cc(O)c(O)c(O)c1 [Theaflavin monogallate A] | 64% | 97% |
| O=C(O[C@@H]1Cc2c(O)cc(O)cc2O[C@@H]1c1cc(O)c(O)c2c(=O)c(O)cc([C@H]3Oc4cc(O)cc(O)c4C[C@H]3O)cc12)c1cc(O)c(O)c(O)c1 [Theaflavin monogallate B] | 47% | 98% |
| Oc1cc(O)c2c(c1)O[C@@H](c1ccc(O)c(O)c1)[C@@H](O)C2 [(+)-Epicatechin] | 12% | 42% |
| (-)-Epicatechin | 5% | 42% |
| (-)-Gallocatechin | 20% | 30% |
| (-)-Catechin | 15% | 45% |
| O=c1c(O)cc([C@H]2Oc3cc(O)cc(O)c3C[C@H]2O)cc2c([C@H]3Oc4cc(O)cc(O)c4C[C@H]3O)cc(O)c(O)c12 [Free theaflavin] | 57% | 98% |
| Oc1cc(O)c2c(c1)O[C@H](c1ccc(O)c(O)c1)[C@@H](O)C2 [(+)-Catechin] | 22% | 62% |
| O=C(O[C@@H]1Cc2c(O)cc(O)cc2O[C@@H]1c1cc(O)c(=O)c2c(O)c(O)cc([C@H]3Oc4cc(O)cc(O)c4C[C@H]3OC(=O)c3cc(O)c(O)c(O)c3)c2c1)c1cc(O)c(O)c(O)c1 [Theaflavin digallate] | 56% | 98% |
| O=C(O[C@@H]1Cc2c(O)cc(O)cc2O[C@H]1c1cc(O)c(O)c(O)c1)c1cc(O)c(O)c(O)c1 [(-)-Gallocatechin gallate] | 47% | 95% |
| Oc1cc(O)c2c(c1)O[C@H](c1cc(O)c(O)c(O)c1)[C@@H](O)C2 [(+)-Gallocatechin] | 15% | 51% |
| (-)-Epicatechin gallate | 35% | 83% |
